Measurements reported in patent US20240398813A1, “PHARMACEUTICAL COMPOSITION FOR PREVENTING OR TREATING OVERACTIVE BLADDER” (GWANGJU INSTITUTE OF SCIENCE AND TECHNOLOGY, priority 2021, published 2024).

target: T1, hyperactive mutant BKCa channels (hSlo G803D/N806K) stably expressed in AD 293 cells (Homo sapiens, UniProt Q12791, G856D/N859K); assay: Cell-based fluorescence assay (FluxOR Potassium Ion Channel Assay) of BKCa channel activation; details: 3 μM
T1 construct: expressed in transfected cells
T1 sequence (Q12791 whole entry G856D/N859K): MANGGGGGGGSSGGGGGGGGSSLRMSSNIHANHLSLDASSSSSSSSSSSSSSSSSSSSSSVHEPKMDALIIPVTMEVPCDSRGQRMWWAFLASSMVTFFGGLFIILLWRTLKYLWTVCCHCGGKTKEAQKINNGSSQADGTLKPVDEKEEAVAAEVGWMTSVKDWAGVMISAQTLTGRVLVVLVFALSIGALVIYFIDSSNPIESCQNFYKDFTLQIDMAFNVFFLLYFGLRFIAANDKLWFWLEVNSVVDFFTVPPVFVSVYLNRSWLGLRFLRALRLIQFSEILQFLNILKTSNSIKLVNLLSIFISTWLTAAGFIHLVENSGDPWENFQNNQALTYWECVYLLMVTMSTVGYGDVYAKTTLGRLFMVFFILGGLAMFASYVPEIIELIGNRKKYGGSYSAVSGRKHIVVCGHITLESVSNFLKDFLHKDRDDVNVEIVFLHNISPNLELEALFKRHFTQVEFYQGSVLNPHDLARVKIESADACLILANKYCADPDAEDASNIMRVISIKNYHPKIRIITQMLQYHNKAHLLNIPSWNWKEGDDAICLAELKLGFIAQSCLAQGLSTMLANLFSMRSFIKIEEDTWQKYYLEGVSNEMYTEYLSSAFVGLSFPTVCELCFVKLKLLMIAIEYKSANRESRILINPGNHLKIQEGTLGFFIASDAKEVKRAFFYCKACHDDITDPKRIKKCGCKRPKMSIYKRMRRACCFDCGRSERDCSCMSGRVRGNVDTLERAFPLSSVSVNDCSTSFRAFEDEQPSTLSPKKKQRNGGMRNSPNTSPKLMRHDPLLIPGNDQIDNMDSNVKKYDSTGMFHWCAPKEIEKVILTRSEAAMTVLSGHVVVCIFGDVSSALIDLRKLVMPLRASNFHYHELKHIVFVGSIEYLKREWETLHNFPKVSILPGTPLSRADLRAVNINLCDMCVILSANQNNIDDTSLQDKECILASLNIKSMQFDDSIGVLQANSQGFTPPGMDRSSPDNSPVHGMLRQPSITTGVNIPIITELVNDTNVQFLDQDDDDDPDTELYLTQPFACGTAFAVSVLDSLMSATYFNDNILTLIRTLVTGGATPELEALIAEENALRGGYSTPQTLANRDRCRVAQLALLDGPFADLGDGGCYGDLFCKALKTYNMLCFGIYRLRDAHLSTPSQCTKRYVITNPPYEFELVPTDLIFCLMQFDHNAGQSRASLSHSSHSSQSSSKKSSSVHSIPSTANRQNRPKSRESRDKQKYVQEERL
Method: AD 293 cells, which are derivatives of the commonly used HEK 293 cell line and stably express hyperactive mutant BKCa channels (hSlo G803D/N806K) to sensitively detect the effect (Lee et al., 2013), were cultured in Dulbecco' modified Eagle medium (Hyclone, Logan, Utah, […]) supplemented with 10% fetal bovine serum, and selected with 1 mg/mL Geneticin (Gibco, Amarillo, TX, USA). 20,000 cells per well were seeded on a 96-well clear-bottom black plate (Corning, New York, NY, USA) coated with poly-D-lysine (Gibco). BKCa channel activity was measured using the cell-based fluorescence assay, FluxOR Potassium Ion Channel Assay (Thermo Fisher Scientific, Waltham, MA, USA). Experimental procedures were performed according to the manufacturer's instructions. The cells were treated with test compounds dissolved in assay buffer for 15 minutes. Fluorescence was measured using a FlexStation3 multimode microplate reader (Molecular Devices, Silicon Valley, CA, USA) and SoftMax Pro (Molecular Devices). Excitation and emission wavelengths were set to 485 nm and 528 nm, respectively. Fluorescence signals were acquired every 2 seconds for 120 seconds and normalized by the relative fluorescence unit (RFU). The efficacy of a channel activator was determined by analyzing changes (ΔRFU) in the RFU for 80 seconds after channel stimulation.
Activation effects of the synthesized compounds on BKCa channels were evaluated using cell-based fluorescence assay. NS11021 was used as the positive control. The effects were determined based on the initial rate (vi) of channel activation and the apparent EC50 value obtained from fitting data of the dose-response curve. Here, Vi means change values for 4 seconds at the start of channel opening (vi={RFU(t=24 s)−RFU(t=20 s)}/4 s). […]

Row | activation effect on the BKCa channels at a single concentration | SMILES
1 | significant activation effects | O=C(O)c1ccc(Cl)c2c1[nH]c1c3ccc(C(F)(F)F)cc3oc12 [LDD175, reference compound]

target: T1, hyperactive mutant BKCa channels (hSlo G803D/N806K) stably expressed in AD 293 cells; assay: as above; details: compounds at 5 μM; n=3; vehicle 0.26

Row | SMILES | Activity (ΔRFU normalized by activities of LDD175)
2 | O=C(O)c1ccc(Cl)c2c1[nH]c1c3ccc(C(F)(F)F)cc3oc12 [LDD175, reference compound] | 1.00
3 | COC(=O)c1ccc2c(=O)[nH]c3c(C(=O)NCc4ccccc4Cl)sc(=S)n3c2c1 [TTQC-8, methyl 3-((2-chlorobenzyl)carbamoyl)-5-oxo-1-thioxo-4,5-dihydro-1H-thiazolo[3,4-a]quinazoline-8-carboxylate] | 0.84
4 | COC(=O)c1ccc2c(=O)[nH]c3c(C(=O)Nc4ccc(F)cc4F)sc(=S)n3c2c1 [TTQC-13, methyl 3-((2,4-difluorophenyl)carbamoyl)-5-oxo-1-thioxo-4,5-dihydro-1H-thiazolo[3,4-a]quinazoline-8-carboxylate] | 0.79
5 | Cc1ccc(CNC(=O)c2sc(=S)n3c2[nH]c(=O)c2cc(Br)ccc23)cc1 [TTQC-14, 7-bromo-N-(4-methylbenzyl)-5-oxo-1-thioxo-4,5-dihydro-1H-thiazolo[3,4-a]quinazoline-3-carboxamide] | 0.76
6 | COc1ccc(OC)c(NC(=O)c2sc(=S)n3c2[nH]c(=O)c2cc(Br)ccc23)c1 [TTQC-15, 7-bromo-N-(2,5-dimethoxyphenyl)-5-oxo-1-thioxo-4,5-dihydro-1H-thiazolo[3,4-a]quinazoline-3-carboxamide] | 0.71
7 | O=C(NCC1CCCO1)c1sc(=S)n2c1[nH]c(=O)c1cc(Br)ccc12 (stereo not drawn) [TTQC-16, 7-bromo-5-oxo-N-((tetrahydrofuran-2-yl)methyl)-1-thioxo-4,5-dihydro-1H-[1,3]thiazolo[3,4-a]quinazoline-3-carboxamide] | 0.64
8 | COc1cc2c(=O)[nH]c3c(C(=O)Nc4cc(Cl)ccc4C)sc(=S)n3c2cc1OC [TTQC-17, N-(5-chloro-2-methylphenyl)-7,8-dimethoxy-5-oxo-1-thioxo-4,5-dihydro-1H-thiazolo[3,4-a]quinazoline-3-carboxamide] | 0.64
9 | CCc1ccccc1NC(=O)c1sc(=S)n2c1[nH]c(=O)c1cc3c(cc12)OCO3 [TTQC-19, N-(2-ethylphenyl)-5-oxo-1-thioxo-4,5-dihydro-1H-[1,3]dioxolo[4,5-g]thiazolo[3,4-a]quinazoline-3-carboxamide] | 0.62
10 | O=C(NCc1ccccc1Cl)c1sc(=S)n2c1[nH]c(=O)c1cc(Br)ccc12 [TTQC-20, 7-bromo-N-(2-chlorobenzyl)-5-oxo-1-thioxo-4,5-dihydro-1H-thiazolo[3,4-a]quinazoline-3-carboxamide] | 0.62
11 | O=C(NCc1ccccc1Cl)c1sc(=S)n2c1[nH]c(=O)c1cc(Cl)ccc12 [TTQC-21, 7-chloro-N-(2-chlorobenzyl)-5-oxo-1-thioxo-4,5-dihydro-1H-thiazolo[3,4-a]quinazoline-3-carboxamide] | 0.60
12 | COc1cc2c(=O)[nH]c3c(C(=O)Nc4ccccc4)sc(=S)n3c2cc1OC [TTQC-22, 7,8-dimethoxy-5-oxo-N-phenyl-1-thioxo-4,5-dihydro-1H-thiazolo[3,4-a]quinazoline-3-carboxamide] | 0.57
13 | O=C(NC1CCCC1)c1sc(=S)n2c1[nH]c(=O)c1ccc(Cl)cc12 [TTQC-23, 8-chloro-N-cyclopentyl-5-oxo-1-thioxo-4,5-dihydro-1H-thiazolo[3,4-a]quinazoline-3-carboxamide] | 0.55
14 | COc1ccccc1NC(=O)c1sc(=S)n2c1[nH]c(=O)c1cc3c(cc12)OCO3 [TTQC-24, N-(2-methoxyphenyl)-5-oxo-1-thioxo-4,5-dihydro-1H-[1,3]dioxolo[4,5-g]thiazolo[3,4-a]quinazoline-3-carboxamide] | 0.51
15 | CNC(=O)c1sc(=S)n2c1[nH]c(=O)c1ccc(Cl)cc12 [TTQC-25, 8-chloro-N-methyl-5-oxo-1-thioxo-4,5-dihydro-1H-thiazolo[3,4-a]quinazoline-3-carboxamide] | 0.50
16 | O=C(NCC1CCCO1)c1sc(=S)n2c1[nH]c(=O)c1cc(Cl)ccc12 (stereo not drawn) [TTQC-27, 7-chloro-5-oxo-N-((tetrahydrofuran-2-yl)methyl)-1-thioxo-4,5-dihydro-1H-thiazolo[3,4-a]quinazoline-3-carboxamide] | 0.47
17 | COc1cccc(CNC(=O)c2sc(=S)n3c2[nH]c(=O)c2ccc(Cl)cc23)c1 [TTQC-29, 8-chloro-N-(3-methoxybenzyl)-5-oxo-1-thioxo-4,5-dihydro-1H-thiazolo[3,4-a]quinazoline-3-carboxamide] | 0.45
18 | O=C(c1sc(=S)n2c1[nH]c(=O)c1cc(Br)ccc12)N1CCCCC1 [TTQC-30, 7-bromo-3-(piperidine-1-carbonyl)-1-thioxo-1H-thiazolo[3,4-a]quinazolin-5(4H)-one] | 0.37
19 | CCc1ccc(NC(=O)c2sc(=S)n3c2[nH]c(=O)c2cc(Br)ccc23)cc1 [TTQC-32, 7-bromo-N-(4-ethylphenyl)-5-oxo-1-thioxo-4,5-dihydro-1H-thiazolo[3,4-a]quinazoline-3-carboxamide] | 0.34
20 | COc1ccc(CNC(=O)c2sc(=S)n3c2[nH]c(=O)c2ccc(Cl)cc23)cc1 [TTQC-33, 8-chloro-N-(4-methoxybenzyl)-5-oxo-1-thioxo-4,5-dihydro-1H-thiazolo[3,4-a]quinazoline-3-carboxamide] | 0.34
21 | COc1ccc(OC)c(NC(=O)c2sc(=S)n3c2[nH]c(=O)c2ccc(Cl)cc23)c1 [TTQC-34, 8-chloro-N-(2,5-dimethoxyphenyl)-5-oxo-1-thioxo-4,5-dihydro-1H-thiazolo[3,4-a]quinazoline-3-carboxamide] | 0.31

The next lines start with the values.

Row | Activity (ΔRFU normalized by activities of LDD175) | SMILES
22 | 0.89 | Cc1ccc2c(c1)c(=O)[nH]c1c(C(=O)Nc3cc(Cl)ccc3C)sc(=S)n12 [TTQC-7, N-(5-chloro-2-methylphenyl)-7-methyl-5-oxo-1-thioxo-4,5-dihydro-1H-thiazolo[3,4-a]quinazoline-3-carboxamide]
23 | 0.84 | Cc1ccc(NC(=O)c2sc(=S)n3c2[nH]c(=O)c2cc(Cl)ccc23)c(C)c1 [TTQC-9, 7-chloro-N-(2,4-dimethylphenyl)-5-oxo-1-thioxo-4,5-dihydro-1H-thiazolo[3,4-a]quinazoline-3-carboxamide]
24 | 0.83 | Cc1ccc(NC(=O)c2sc(=S)n3c2[nH]c(=O)c2cc(Br)ccc23)c(C)c1 [TTQC-10, 7-bromo-N-(2,4-dimethylphenyl)-5-oxo-1-thioxo-4,5-dihydro-1H-thiazolo[3,4-a]quinazoline-3-carboxamide]
25 | 0.82 | Cc1ccc2c(c1)c(=O)[nH]c1c(C(=O)Nc3ccccc3C)sc(=S)n12 [TTQC-11, 7-methyl-5-oxo-1-thioxo-N-(o-tolyl)-4,5-dihydro-1H-thiazolo[3,4-a]quinazoline-3-carboxamide]
26 | 0.81 | Cc1ccc(Cl)cc1NC(=O)c1sc(=S)n2c1[nH]c(=O)c1cc3c(cc12)OCO3 [TTQC-12, N-(5-chloro-2-methylphenyl)-5-oxo-1-thioxo-4,5-dihydro-1H-[1,3]dioxolo[4,5-g]thiazolo[3,4-a]quinazoline-3-carboxamide]
27 | 0.63 | COc1ccc(OC)c(NC(=O)c2sc(=S)n3c2[nH]c(=O)c2cc(C)ccc23)c1 [TTQC-18, N-(2,5-dimethoxyphenyl)-7-methyl-5-oxo-1-thioxo-4,5-dihydro-1H-thiazolo[3,4-a]quinazoline-3-carboxamide]
28 | 0.49 | O=C(Nc1ccc(Br)cc1F)c1sc(=S)n2c1[nH]c(=O)c1ccc(Cl)cc12 [TTQC-26, N-(4-bromo-2-fluorophenyl)-8-chloro-5-oxo-1-thioxo-4,5-dihydro-1H-thiazolo[3,4-a]quinazoline-3-carboxamide]
29 | 0.45 | CCOc1ccccc1NC(=O)c1sc(=S)n2c1[nH]c(=O)c1cc(Cl)ccc12 [TTQC-28, 7-chloro-N-(2-ethoxyphenyl)-5-oxo-1-thioxo-4,5-dihydro-1H-thiazolo[3,4-a]quinazoline-3-carboxamide]
30 | 0.34 | Cc1ccc(NC(=O)c2sc(=S)n3c2[nH]c(=O)c2cc(C)ccc23)c(C)c1 [TTQC-31, N-(2,4-dimethylphenyl)-7-methyl-5-oxo-1-thioxo-4,5-dihydro-1H-thiazolo[3,4-a]quinazoline-3-carboxamide]
